According to article PMC10065799, “High-throughput profiling of sequence recognition by tyrosine kinases and SH2 domains using bacterial peptide display” (eLife, 2023):

Tests used:
Test in all cases: pTyr-Var library bacterial peptide display kinase screen (enrichment scores)
[1] = molecular target: c-Src kinase domain (Homo sapiens, UniProt P12931); assay type: biochemical; details: sheet "Src"
[2] = system: Fer kinase domain; assay type: biochemical, mouse; details: sheet "Fer"
[3] = system: EPHB2 kinase domain; assay type: biochemical, human; details: sheet EPHB2
[4] = molecular target: T1, c-Abl kinase domain (Mus musculus, UniProt P00520); assay type: biochemical
T1 sequence (P00520 242-493 limits assumed): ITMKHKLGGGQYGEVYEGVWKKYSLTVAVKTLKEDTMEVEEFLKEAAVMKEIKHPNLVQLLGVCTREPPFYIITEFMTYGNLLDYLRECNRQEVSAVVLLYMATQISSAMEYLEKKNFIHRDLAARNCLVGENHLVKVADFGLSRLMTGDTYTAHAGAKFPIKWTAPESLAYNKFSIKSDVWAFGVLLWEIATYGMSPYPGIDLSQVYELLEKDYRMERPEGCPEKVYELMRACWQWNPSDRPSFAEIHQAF

[5] = system: EPHB1 kinase domain; assay type: biochemical, human; details: sheet EPHB1; effect of the variant peptide relative to its reference peptide in the pTyr-Var library screen (enrichment scores)
[6] = variant peptide versus its reference peptide in the pTyr-Var library screen
[7] = variant peptide relative to its reference peptide, pTyr-Var library screen enrichment
[8] = effect of variant peptide relative to its reference peptide in the pTyr-Var library screen (enrichment scores)
[9] = fig5-data2, sheet "Abl", Screen for the variant/reference peptide pair, pTyr-Var library
[10] = effect of the variant peptide relative to its reference peptide in the pTyr-Var library screen
[11] = value of the variant peptide against its reference peptide in the pTyr-Var library screen with Fer
[12] = sheet "Abl", effect of variant peptide relative to its reference peptide in pTyr-Var library screen (enrichment)
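Note: log2 fold change in enrichment of variant over reference.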

LNPLIYTLRNA [OR4C46_Y285_K288R] showed a Screen [1, 6] of 1.167.
With LRSRVYEVPVE [SLC26A3_Y756_N753S] the Screen [2, 7] was -0.9023 and the Screen [3, 8] was -0.8191.
Sequence LSCLAYSGKDA [FXN_Y205_S202C] has a Screen [4, 9] of -1.545.
LWKWRYEELKE [CCDC102B_Y299_K298R] was tested, and the Screen [4, 9] was 0.5114.
For NCLRVYVAGRF [CRB1_Y711_E710V], the Screen [4, 9] was -0.2235.
With NEKNIYGVPLM [BMPR2_Y247_R248G] the Screen [1, 10] was 1.983, the Screen [2, 11] was 2.844 and the Screen [3, 8] was 2.247.
In the case of NHFKIYNLFAE [PTEN_Y68_C71Y_YF], the Screen [1, 6] is reported as -1.146.
In the case of NHFKRYNLCAE [PTEN_Y68_I67R_YF], the Screen [1, 6] is reported as -2.549.
Work on NNRVFYGNSDC [RS1_Y177_R182C] yielded a Screen [4, 9] of -1.349.
Sequence PEPHIYAVADV [MYO9A_Y216_L211P] has a Screen [1, 6] of 0.7992, a Screen [2, 11] of 0.8588 and a Screen [3, 8] of 0.8276.
Sequence PFQGAYLKINK [MYO1B_Y967_E969K] has a Screen [4, 9] of 1.339.
PGDGEYFTLQI [TP53_Y327_L323G] gave a Screen [1, 6] of 0.07795.
PIPIKYKAMKK [MYD88_Y257_L252P] gave a Screen [4, 9] of -1.096.
Work on PKSLFYLLLKP [TRPC6_Y775_L780P] yielded a Screen [1, 6] of -1.15, a Screen [2, 7] of -0.7977 and a Screen ([3]; effect of the variant relative to its reference peptide in the pTyr-Var library screen) of -1.737.
Sequence PLDEEYFTLQI [TP53_Y327_G325E] has a Screen [1, 6] of -0.5709 and a Screen [4, 12] of -1.267.
Sequence PLDGEYSTLQI [TP53_Y327_F328S] has a Screen [1, 6] of -0.3767 and a Screen [2, 7] of 1.6.
PLDGEYVTLQI [TP53_Y327_F328V] was tested, and the Screen [1, 6] was -2.053 and the Screen [4, 12] was -0.6513.
For PLDVEYFTLQI [TP53_Y327_G325V], the Screen [1, 6] was -0.5097 and the Screen [4, 12] was -0.7642.
PLQKIYNFNVL [SLC4A1_Y553_T552I_YF] was tested, and the Screen [1, 6] was 2.735.
With PPDGEYFTLQI [TP53_Y327_L323P] the Screen [1, 6] was 0.5031.
For PQIVNYSPDCI [LDHB_Y128_K127N], the Screen [4, 9] was -0.6074.
PSDLLYIPDIQ [ITGA2B_Y845_L847P] showed a Screen [1, 10] of -2.46.
PVFEVYPLLNC [GATA1_Y78_Q76E] gave a Screen [4, 9] of 0.8954.
PVQAAYQKVEA [HBB_Y131_V135E] was tested, and the Screen [4, 9] was -0.9436.
Work on QFKGKYLAKHN [CASK_Y712_D710G_YF] yielded a Screen [4, 9] of 0.5412.
For QMVDMYASSFM [AVPR2_Y124_G122D_YF], the Screen [1, 10] was 0.5236.
Work on QQIFTYDSGIH [JUP_Y22_T19I_YF] yielded a Screen [4, 9] of 1.325.
Work on REGDKYVSHGA [ASS1_Y113_A111D] yielded a Screen [4, 9] of 0.7285.
RLLVVYTWTQR [HBB_Y36_P37T] showed a Screen [4, 9] of 0.544.
For RQNNSYTCFTA [SLC20A2_Y386_R382Q_YF], the Screen [1, 6] was -1.243 and the Screen [3, 8] was -1.481.
In the case of SDMGQYQCLVF [AXL_Y115_T112M], the Screen [1, 10] is reported as 0.2602 and the Screen [2, 11] is reported as 0.2934.
Work on SRNSKYNAEST [PSEN1_Y315_K311R] yielded a Screen [4, 9] of -1.342.
SSWPDYVRPLP [HSPB1_Y54_G53D] showed a Screen [5] of 1.698.
Work on STTSDYQWDFS [MTDH_Y364_V368F] yielded a Screen [4, 9] of -0.6152.
Work on SVETPYVSVTF [NDRG2_Y47_G48V] yielded a Screen [1, 6] of -1.163 and a Screen [2, 11] of -1.711.
SVMAEYGLFAA [VSX2_Y219_G223A_YF] gave a Screen [1, 6] of -0.3175.
With SVTCTYPPALN [TP53_Y126_S127P] the Screen [4, 12] was 1.141.
With TDGIAYEFRVT [TTN_Y22256_I22261T] the Screen [4, 12] was -3.408.
TEALFYTDDPA [ADPRS_Y75_T79P_YF] showed a Screen [4, 9] of 1.901.
For TESALYGCTIL [MAP3K21_Y724_V728I], the Screen [1, 10] was 0.3601 and the Screen [2, 11] was -0.01841.
With TLLAFYMGNFS [GLB1_Y552_P549L] the Screen [4, 9] was -0.5504.
TVLEPYTDPFF [ZC3H18_Y367_A368T_YF] gave a Screen [4, 12] of 2.315.
In the case of VEEDTYTMPST [PTK2_Y407_D402V], the Screen [1, 6] is reported as 0.7074.
VGAKTYKMSMA [CPS1_Y309_A304V] was tested, and the Screen [4, 9] was 0.4399.
VIVRMYDFHVL [RPF2_Y109_G106V_YF] showed a Screen [2, 7] of -0.9951 and a Screen [3, 8] of 1.263.
Work on VNFDFYTVNLG [GFPT1_Y367_D366Y_YF] yielded a Screen [1, 10] of 0.9419.
Sequence VPHECYAKVFD [ALB_Y394_D389V] has a Screen [4, 9] of 0.9527.
VRFMAYTDETC [F8_Y450_F455C] was tested, and the Screen [4, 9] was 1.283.
For VRHRHYKHTHE [CTCF_Y343_R342H], the Screen [4, 9] was -0.4723.
WAMPAYNRSKL [WWOX_Y293_L291P] was tested, and the Screen [4, 12] was 4.174.
In the case of WKEREYEVVRD [CPS1_Y634_I632R], the Screen [3, 8] is reported as 0.9502.
